Measured values from patent US8404708B2, “Dual NK1/NK3 receptor antagonists” (Hoffmann-La Roche Inc., priority 2004, dated 2013).
pKi: −log10 of the molar value. Like-named read-outs stand apart in the source and are kept apart here.

Tests used:
[1] = biological target: human NK1 receptor (Homo sapiens, UniProt P25103); assay: NK1 receptor binding, [3H]substance P displacement, CHO cell membranes; conditions: for pKi: first value of the cell pKi NK1/NK3, human NK1 receptor, [3H]substance P; for Ki: first value of the cell NK1/NK3, read-out: pKi NK1 (converted)
human NK1 receptor, sequence (P25103 whole entry): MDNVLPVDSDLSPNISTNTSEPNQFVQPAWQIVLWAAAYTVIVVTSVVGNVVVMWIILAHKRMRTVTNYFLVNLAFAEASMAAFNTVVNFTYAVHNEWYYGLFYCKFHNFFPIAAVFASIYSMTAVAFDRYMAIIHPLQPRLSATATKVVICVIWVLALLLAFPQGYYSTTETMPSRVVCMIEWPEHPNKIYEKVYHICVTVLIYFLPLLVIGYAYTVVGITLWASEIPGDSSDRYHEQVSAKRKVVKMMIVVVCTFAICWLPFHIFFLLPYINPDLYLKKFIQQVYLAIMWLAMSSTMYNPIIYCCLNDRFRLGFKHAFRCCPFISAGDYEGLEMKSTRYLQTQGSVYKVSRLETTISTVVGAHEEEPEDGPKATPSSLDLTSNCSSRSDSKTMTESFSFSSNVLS

[2] = biological target: T1, Recombinant human NK3 (hNK3) receptor (Homo sapiens, UniProt P29371); assay: NK3 receptor binding, [3H]SR142801 displacement, membrane preparations; conditions: for pKi: second value of the cell pKi NK1/NK3, hNK3 receptor, [3H]SR142801; for Ki: second value of the cell NK1/NK3, read-out: pKi NK3 (converted)
T1 construct: expressed in transfected cells
T1 sequence (P29371 1-465): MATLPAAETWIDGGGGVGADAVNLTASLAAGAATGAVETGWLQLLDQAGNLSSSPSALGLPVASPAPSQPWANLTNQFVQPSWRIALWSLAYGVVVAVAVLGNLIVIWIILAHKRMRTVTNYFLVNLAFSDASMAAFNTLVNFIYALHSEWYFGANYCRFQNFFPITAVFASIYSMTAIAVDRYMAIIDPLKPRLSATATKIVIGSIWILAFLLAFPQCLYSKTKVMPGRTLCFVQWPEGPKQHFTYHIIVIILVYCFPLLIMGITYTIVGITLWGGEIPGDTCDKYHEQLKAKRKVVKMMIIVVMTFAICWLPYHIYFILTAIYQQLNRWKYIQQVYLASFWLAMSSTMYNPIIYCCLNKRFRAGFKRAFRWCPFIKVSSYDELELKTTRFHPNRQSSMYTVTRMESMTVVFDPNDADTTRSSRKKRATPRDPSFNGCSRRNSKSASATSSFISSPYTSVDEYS
Procedure: Non specific binding was determined using 10 μM SB222200. Assay buffer consisted of Tris-HCl (50 mM, pH 7.4), BSA (0.1%), MnCl2 (4 mM) and phosphoramidon (1 μM). Membrane preparations of hNK3 receptors (approximately 2.5 μg/well in a 96 well plate) were used to initiate the incubation for 90 min at room temperature. This assay was terminated by rapid filtration under vacuum through GF/C filters, presoaked for 90 min with PEI (0.3%), with 3×0.5 ml washes of ice-cold Tris buffer (50 mM, pH 7.4) containing 0.1% BSA. The radioactivity retained on the filters was measured by scintillation counting. All assays were performed in duplicate in at least two separate experiments.

SMILES | pKi [1] | pKi [2] | Ki [1] | Ki [2]
Cc1cc(F)ccc1-c1cc(N2CCC(=O)C2)ncc1N(C)C(=O)C(C)(C)c1cc(C(F)(F)F)cc(C(F)(F)F)c1 [Example 111, 2-(3,5-Bis-trifluoromethyl-phenyl)-N-[4-(4-fluoro-2-methyl-phenyl)-6-(3-oxo-pyrrolidin-1-yl)-pyridin-3-yl]-N-methyl-isobutyramide] | 8.68 | 8.39 | – | –
CN(C(=O)C(C)(C)c1cc(C(F)(F)F)cc(C(F)(F)F)c1)c1cnc(N2C[C@H](O)C[C@H]2CO)cc1-c1cccc(Br)c1 [Example 205, (2S,4R)-2-(3,5-Bis-trifluoromethyl-phenyl)-N-[4-(3-bromo-phenyl)-6-(4-hydroxy-2-hydroxymethyl-pyrrolidin-1-yl)-pyridin-3-yl]-N-methyl-isobutyramide] | 8.71 | 8.07 | – | –
CC(O)CN(CC(C)O)c1cc(-c2ccccc2Cl)c(N(C)C(=O)C(C)(C)c2cc(C(F)(F)F)cc(C(F)(F)F)c2)cn1 (centres unmarked) [Example 124, N-[6-[Bis-(2-hydroxy-propyl)-amino]-4-(2-chloro-phenyl)-pyridin-3-yl]-2-(3,5-bis-trifluoromethyl-phenyl)-N-methyl-isobutyramide] | 8.58 | 7.86 | – | –
CN(C(=O)C(C)(C)c1cc(C(F)(F)F)cc(C(F)(F)F)c1)c1cnc(NC(CO)CO)cc1-c1ccccc1Cl [Example 81, 2-(3,5-Bis-trifluoromethyl-phenyl)-N-[4-(2-chloro-phenyl)-6-(2-hydroxy-1-hydroxymethyl-ethylamino)-pyridin-3-yl]-N-methyl-isobutyramide] | 8.68 | 8.25 | – | –
Cc1ccncc1-c1cc(N2CCC[C@H]2CO)ncc1N(C)C(=O)C(C)(C)c1cc(C(F)(F)F)cc(C(F)(F)F)c1 [Example 292, (S)-2-(3,5-Bis-trifluoromethyl-phenyl)-N-[6′-(2-hydroxymethyl-pyrrolidin-1-yl)-4-methyl-[3,4′]bipyridinyl-3′-yl]-N-methyl-isobutyramide] | – | – | 3.63 nM | 0.776 nM
CN(C(=O)C(C)(C)c1cc(C(F)(F)F)cc(C(F)(F)F)c1)c1cnc(N2C[C@@H](O)C[C@H]2CO)cc1-c1ccc(F)cc1CO [Example 240, (2S,4S)-2-(3,5-Bis-trifluoromethyl-phenyl)-N-[4-(4-fluoro-2-hydroxymethyl-phenyl)-6-(4-hydroxy-2-hydroxymethyl-pyrrolidin-1-yl)-pyridin-3-yl]-N-methyl-isobutyramide] | – | – | 0.794 nM | 3.02 nM
CN(C(=O)C(C)(C)c1cc(C(F)(F)F)cc(C(F)(F)F)c1)c1cnc(N2CCC[C@@H]2CO)cc1-c1ccc(Cl)c(Cl)c1 [Example 95, (R)-2-(3,5-Bis-trifluoromethyl-phenyl)-N-[4-(3,4-dichloro-phenyl)-6-(2-hydroxymethyl-pyrrolidin-1-yl)-pyridin-3-yl]-N-methyl-isobutyramide] | 8.42 | 8.03 | – | –
CN(C)c1ccc(-c2cc(N3C[C@H](O)C[C@H]3CO)ncc2N(C)C(=O)C(C)(C)c2cc(C(F)(F)F)cc(C(F)(F)F)c2)cc1 [Example 204, (2S,4R)-2-(3,5-Bis-trifluoromethyl-phenyl)-N-[4-(4-dimethylamino-phenyl)-6-(4-hydroxy-2-hydroxymethyl-pyrrolidin-1-yl)-pyridin-3-yl]-N-methyl-isobutyramide] | 7.82 | 7.83 | – | –
CN(C(=O)C(C)(C)c1cc(C(F)(F)F)cc(C(F)(F)F)c1)c1cnc(N2C[C@@H](O)C[C@H]2CO)cc1-c1ccc(F)cc1Cl [Example 235, (2S,4S)-2-(3,5-Bis-trifluoromethyl-phenyl)-N-[4-(2-chloro-4-fluoro-phenyl)-6-(4-hydroxy-2-hydroxymethyl-pyrrolidin-1-yl)-pyridin-3-yl]-N-methyl-isobutyramide] | – | – | 1.66 nM | 1.26 nM
CN(C(=O)C(C)(C)c1cc(C(F)(F)F)cc(C(F)(F)F)c1)c1cnc(N2C[C@H](O)C[C@H]2CO)cc1-c1ccccc1C=O [Example 224, (2S,4R)-2-(3,5-Bis-trifluoromethyl-phenyl)-N-[4-(2-formyl-phenyl)-6-(4-hydroxy-2-hydroxymethyl-pyrrolidin-1-yl)-pyridin-3-yl]-N-methyl-isobutyramide] | – | – | 1.12 nM | 1.51 nM
